# Source: patent US10336732B2, “1-heterocyclyl isochromanyl compounds and analogs for treating CNS disorders” (Sunovion Pharmaceuticals Inc., priority 2015, dated 2019)
# Tested on: mice
# Assay: Neuropharmacological assay (SmartCube), behavioral signature of compound-treated mice
# Format: in vivo
# Conditions: i.p. 15 min before behavioral test, most efficacious dose(s) of 3 doses
# In short: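 Read-out is an automated video-based behavioral signature, scored as per-class probabilities (e.g., anxiolytic, antidepressant) against reference compounds. Dosing was i.p. at three doses, 15 min pre-test, in NMP, polyethylene glycol and propylene glycol. Values shown are from the most efficacious dose(s).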
SMILES,AD: ADHD (probability that behavioral signature matches class),AG: analgesic (probability that behavioral signature matches class),AX: anxiolytic (probability that behavioral signature matches class),CE: cognitive enhancer (probability that behavioral signature matches class),DP: anti-depressant (probability that behavioral signature matches class),HA: hallucinogen (probability that behavioral signature matches class),MS: mood stabilizer (probability that behavioral signature matches class),PS: anti-psychotic (probability that behavioral signature matches class),SD: sedative hypnotic (probability that behavioral signature matches class),UN: uncharacterized CNS activity (probability that behavioral signature matches class)
"Fc1cccc2c1[C@H]([C@@H]1CCCN1)OCCC2 [Compound I-105, (S)-2-((R)-9-fluoro-1,3,4,5-tetrahydrobenzo[c]oxepin-1-yl)pyrrolidine]",+ (LOQ ≤ + <5%),++ (5% ≤ ++ <25%),+++ (25% ≤ +++ <50%),++ (5% ≤ ++ <25%),++ (5% ≤ ++ <25%),+ (LOQ ≤ + <5%),+ (LOQ ≤ + <5%),++ (5% ≤ ++ <25%),++ (5% ≤ ++ <25%),++++ (50% ≤ ++++)
"CC1(C)Cc2ccccc2[C@@H]([C@H]2CCCN2)O1 [Compound I-67, (R)-2-((S)-3,3-dimethylisochroman-1-yl)pyrrolidine]",+ (LOQ ≤ + <5%),+ (LOQ ≤ + <5%),+ (LOQ ≤ + <5%),+ (LOQ ≤ + <5%),+ (LOQ ≤ + <5%),+ (LOQ ≤ + <5%),+ (LOQ ≤ + <5%),+ (LOQ ≤ + <5%),+ (LOQ ≤ + <5%),+ (LOQ ≤ + <5%)
"CC1(C)Cc2ccccc2[C@H]([C@@H]2CCCN2)O1 [Compound I-66, (S)-2-((R)-3,3-dimethylisochroman-1-yl)pyrrolidine]",+ (LOQ ≤ + <5%),++ (5% ≤ ++ <25%),++ (5% ≤ ++ <25%),++ (5% ≤ ++ <25%),++ (5% ≤ ++ <25%),+ (LOQ ≤ + <5%),+ (LOQ ≤ + <5%),+++ (25% ≤ +++ <50%),+ (LOQ ≤ + <5%),++ (5% ≤ ++ <25%)
"N#Cc1ccc2c(c1)[C@@H]([C@@H]1CCCN1)OCC2 [Compound I-39, (S)-1-((S)-pyrrolidin-2-yl)isochroman-7-carbonitrile]",+ (LOQ ≤ + <5%),++ (5% ≤ ++ <25%),++ (5% ≤ ++ <25%),++ (5% ≤ ++ <25%),+ (LOQ ≤ + <5%),+ (LOQ ≤ + <5%),+ (LOQ ≤ + <5%),+ (LOQ ≤ + <5%),+ (LOQ ≤ + <5%),++ (5% ≤ ++ <25%)
"Fc1ccc2c(c1)CO[C@@H]2[C@H]1CCN1 [Compound I-127, (R)-2-((S)-5-fluoro-1,3-dihydroisobenzofuran-1-yl)azetidine]",+ (LOQ ≤ + <5%),++ (5% ≤ ++ <25%),++ (5% ≤ ++ <25%),++ (5% ≤ ++ <25%),++ (5% ≤ ++ <25%),+ (LOQ ≤ + <5%),+ (LOQ ≤ + <5%),++ (5% ≤ ++ <25%),+ (LOQ ≤ + <5%),++ (5% ≤ ++ <25%)
"Fc1cccc2c1CCO[C@@H]2[C@@H]1CCCN1 [Compound I-14, (S)-2-((S)-5-fluoroisochroman-1-yl)pyrrolidine]",+ (LOQ ≤ + <5%),++ (5% ≤ ++ <25%),++ (5% ≤ ++ <25%),++ (5% ≤ ++ <25%),+++ (25% ≤ +++ <50%),+ (LOQ ≤ + <5%),++ (5% ≤ ++ <25%),+++ (25% ≤ +++ <50%),+ (LOQ ≤ + <5%),+ (LOQ ≤ + <5%)
"Fc1ccc2c(c1)[C@@H]([C@H]1CCN1)OCC2 [Compound I-88, (R)-2-((S)-7-fluoroisochroman-1-yl)azetidine]",+ (LOQ ≤ + <5%),++ (5% ≤ ++ <25%),+++ (25% ≤ +++ <50%),++ (5% ≤ ++ <25%),++ (5% ≤ ++ <25%),+ (LOQ ≤ + <5%),+ (LOQ ≤ + <5%),++ (5% ≤ ++ <25%),+ (LOQ ≤ + <5%),+++ (25% ≤ +++ <50%)
"Clc1ccc2c(c1)CCO[C@@H]2[C@@H]1CCCN1 [Compound I-33, (S)-2-((S)-6-chloroisochroman-1-yl)pyrrolidine]",+ (LOQ ≤ + <5%),+ (LOQ ≤ + <5%),++ (5% ≤ ++ <25%),++ (5% ≤ ++ <25%),++ (5% ≤ ++ <25%),+ (LOQ ≤ + <5%),+ (LOQ ≤ + <5%),+++ (25% ≤ +++ <50%),++ (5% ≤ ++ <25%),+ (LOQ ≤ + <5%)
"c1cc2c(c3c1CCO[C@@H]3[C@@H]1CCN1)OCO2 [Compound I-143, (S)-2-((S)-7,9-dihydro-6H-[1,3]dioxolo[4,5-h]isochromen-9-yl)azetidine]",+ (LOQ ≤ + <5%),++ (5% ≤ ++ <25%),++ (5% ≤ ++ <25%),+ (LOQ ≤ + <5%),++ (5% ≤ ++ <25%),+ (LOQ ≤ + <5%),+ (LOQ ≤ + <5%),++ (5% ≤ ++ <25%),+ (LOQ ≤ + <5%),+++ (25% ≤ +++ <50%)

# Same assay, conditions: i.p. 15 min before behavioral test, most efficacious dose(s) of 3 doses
row,SMILES,XG: anxiogenic (probability that behavioral signature matches class)
1,"Fc1cccc2c1[C@H]([C@@H]1CCCN1)OCCC2 [Compound I-105, (S)-2-((R)-9-fluoro-1,3,4,5-tetrahydrobenzo[c]oxepin-1-yl)pyrrolidine]",+ (LOQ ≤ + <5%)
2,"CC1(C)Cc2ccccc2[C@@H]([C@H]2CCCN2)O1 [Compound I-67, (R)-2-((S)-3,3-dimethylisochroman-1-yl)pyrrolidine]",+ (LOQ ≤ + <5%)
3,"CC1(C)Cc2ccccc2[C@H]([C@@H]2CCCN2)O1 [Compound I-66, (S)-2-((R)-3,3-dimethylisochroman-1-yl)pyrrolidine]",+ (LOQ ≤ + <5%)
4,"N#Cc1ccc2c(c1)[C@@H]([C@@H]1CCCN1)OCC2 [Compound I-39, (S)-1-((S)-pyrrolidin-2-yl)isochroman-7-carbonitrile]",+ (LOQ ≤ + <5%)
5,"Fc1ccc2c(c1)CO[C@@H]2[C@H]1CCN1 [Compound I-127, (R)-2-((S)-5-fluoro-1,3-dihydroisobenzofuran-1-yl)azetidine]",+ (LOQ ≤ + <5%)
6,"Fc1cccc2c1CCO[C@@H]2[C@@H]1CCCN1 [Compound I-14, (S)-2-((S)-5-fluoroisochroman-1-yl)pyrrolidine]",+ (LOQ ≤ + <5%)
7,"Fc1ccc2c(c1)[C@@H]([C@H]1CCN1)OCC2 [Compound I-88, (R)-2-((S)-7-fluoroisochroman-1-yl)azetidine]",+ (LOQ ≤ + <5%)
8,"Clc1ccc2c(c1)CCO[C@@H]2[C@@H]1CCCN1 [Compound I-33, (S)-2-((S)-6-chloroisochroman-1-yl)pyrrolidine]",+ (LOQ ≤ + <5%)
9,"c1cc2c(c3c1CCO[C@@H]3[C@@H]1CCN1)OCO2 [Compound I-143, (S)-2-((S)-7,9-dihydro-6H-[1,3]dioxolo[4,5-h]isochromen-9-yl)azetidine]",+ (LOQ ≤ + <5%)
